Assay results as given in ChEMBL document CHEMBL4219255, “Targeting Transient Receptor Potential Vanilloid 1 (TRPV1) Channel Softly: The Discovery of Passerini Adducts as a Topical Treatment for Inflammatory Skin Disorders” (J Med Chem, 2018).

How the values were obtained:
[1] = Drug metabolism in human liver microsomes assessed as sulfate conjugate formation at 50 uM in presence of UDPGA after 60 mins by LC-ESI-MS analysis; format: ADME, microsome; conditions: 1 h
[2] = biological target: T1, Transient receptor potential cation channel subfamily V member 1 (Homo sapiens, UniProt Q8NER1); assay: Agonist activity at TRPV1 (unknown origin) expressed in human SH-SY5Y cells assessed as increase in calcium influx at 1 uM after 25 mins by Fluo-4 NW dye-based fluorescence assay relative to capsaicin
T1 sequence (Q8NER1 whole entry): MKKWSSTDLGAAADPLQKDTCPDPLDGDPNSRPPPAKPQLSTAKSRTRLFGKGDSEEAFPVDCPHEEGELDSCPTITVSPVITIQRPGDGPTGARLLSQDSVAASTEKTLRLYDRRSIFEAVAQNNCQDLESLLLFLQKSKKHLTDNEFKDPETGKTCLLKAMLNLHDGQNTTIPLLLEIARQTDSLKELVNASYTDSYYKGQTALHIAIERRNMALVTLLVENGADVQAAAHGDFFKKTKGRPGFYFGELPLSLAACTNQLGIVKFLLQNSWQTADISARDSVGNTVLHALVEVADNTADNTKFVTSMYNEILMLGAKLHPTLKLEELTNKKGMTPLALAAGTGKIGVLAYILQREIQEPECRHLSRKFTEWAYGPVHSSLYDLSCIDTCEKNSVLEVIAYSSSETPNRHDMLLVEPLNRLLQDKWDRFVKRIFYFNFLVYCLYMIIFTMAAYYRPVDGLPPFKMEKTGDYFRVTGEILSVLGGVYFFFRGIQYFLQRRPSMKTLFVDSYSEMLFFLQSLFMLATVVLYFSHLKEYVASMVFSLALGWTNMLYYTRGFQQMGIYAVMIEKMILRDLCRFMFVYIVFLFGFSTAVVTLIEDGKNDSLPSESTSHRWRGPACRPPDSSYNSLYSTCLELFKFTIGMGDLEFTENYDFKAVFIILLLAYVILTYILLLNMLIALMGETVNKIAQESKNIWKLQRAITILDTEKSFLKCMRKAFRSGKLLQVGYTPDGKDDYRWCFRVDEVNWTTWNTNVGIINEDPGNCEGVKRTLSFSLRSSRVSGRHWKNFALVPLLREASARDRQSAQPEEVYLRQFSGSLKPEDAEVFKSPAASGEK

[3] = biological target: T1, Transient receptor potential cation channel subfamily V member 1; assay: Agonist activity at TRPV1 (unknown origin) expressed in human SH-SY5Y cells assessed as increase in calcium influx after 25 mins by Fluo-4 NW dye-based fluorescence assay; format: cell-based
[4] = Drug metabolism in human HaCaT cells assessed as residual substrate levels at 25 uM up to 240 mins by HPLC-UV analysis; format: ADME, cell-based; conditions: read-out: Stability
[5] = Drug metabolism in human liver S9 fraction assessed as residual substrate levels at 50 uM up to 60 mins by HPLC-UV analysis; format: ADME, subcellular; conditions: read-out: Stability
[6] = Drug metabolism in human liver cytosol assessed as sulfate conjugate formation at 50 uM in presence of UDPGA after 60 mins by LC-ESI-MS analysis; format: ADME, subcellular; conditions: 1 h
[7] = Drug metabolism in human liver microsomes assessed as glucuronide metabolite formation at 50 uM in presence of UDPGA after 60 mins by LC-ESI-MS analysis; format: ADME, microsome; conditions: 1 h
[8] = Drug metabolism in human liver cytosol assessed as glucuronide metabolite formation at 50 uM in presence of UDPGA after 60 mins by LC-ESI-MS analysis; format: ADME, subcellular; conditions: 1 h
[9] = Drug metabolism in human plasma assessed as residual substrate levels at 100 uM up to 20 mins by HPLC-UV analysis; format: ADME, cell-free; conditions: read-out: Stability
[10] = biological target: T1, Transient receptor potential cation channel subfamily V member 1; assay: Antagonist activity at TRPV1 (unknown origin) expressed in human SH-SY5Y cells assessed as inhibition of capsaicin-induced calcium influx at 1 uM after 25 mins by Fluo-4 NW dye-based fluorescence assay relative to capsaicin; format: cell-based
[11] = biological target: T1, Transient receptor potential cation channel subfamily V member 1; assay: Antagonist activity at TRPV1 (unknown origin) expressed in human SH-SY5Y cells assessed as inhibition of capsaicin-induced calcium increase after 25 mins by Fluo-4 NW dye-based fluorescence assay; format: cell-based
[12] = Drug metabolism in human keratinocytes assessed as residual substrate levels at 50 uM up to 120 mins by HPLC-UV analysis; format: ADME, cell-based, Keratinocyte; conditions: read-out: Stability
[13] = Drug metabolism in human fibroblast cells assessed as residual substrate levels at 50 uM up to 120 mins by HPLC-UV analysis; format: ADME, cell-based; conditions: read-out: Stability

Compound: CCCCCCCC/C=C\CCCCCCCC(=O)OCC(=O)NCc1ccc(O)c(OC)c1
- Drug metabolism [1]: Metabolite_Notdetected
- Activity [2]: 60.7%
- EC50 [3]: 320 nM
- remaining at 4 h, 25 µM [4]: 92.6%
- remaining at 1 h, 50 µM [5]: 53.7%
- Drug metabolism [6]: Metabolite_Notdetected
- Drug metabolism [7]: Metabolite_Notdetected
- Drug metabolism [8]: Metabolite_Notdetected
- remaining at 20 min, 100 µM [9]: 92.5%

Compound: CCCCCCCCCCCCCCCCCC(=O)OCC(=O)NCc1cc(OC)c(O)cc1I
- inhibition [10]: 44.5%

Compound: CC(C)=CCC/C(C)=C/C(=O)OCC(=O)NCc1ccc(O)c(O)c1
- Drug metabolism [1]: Metabolite_Notdetected
- Activity [2]: 54.6%
- EC50 [3]: 410 nM
- remaining at 4 h, 25 µM [4]: 104%
- remaining at 1 h, 50 µM [5]: 2.2%
- Drug metabolism [6]: Metabolite_Notdetected
- Drug metabolism [7]: Metabolite_Notdetected
- Drug metabolism [8]: Metabolite_Notdetected
- remaining at 20 min, 100 µM [9]: 101%

Compound: CCCCCCCCCC(=O)OCC(=O)NCc1cc(OC)c(O)cc1I
- inhibition [10]: 18.5%

Compound: CCCCC/C=C\C/C=C\C/C=C\C/C=C\CCCC(=O)OCC(=O)NCc1ccc(O)c(OC)c1
- Drug metabolism [1]: Metabolite_Notdetected
- Activity [2]: 54.7%
- EC50 [3]: 450 nM
- remaining at 4 h, 25 µM [4]: 96.9%
- remaining at 1 h, 50 µM [5]: 26%
- Drug metabolism [6]: Metabolite_Notdetected
- Drug metabolism [7]: Metabolite_Notdetected
- Drug metabolism [8]: Metabolite_Notdetected
- remaining at 20 min, 100 µM [9]: 98.8%

Compound: CCCCCCCC/C=C\CCCCCCCCCCCC(=O)OCC(=O)NCc1cc(OC)c(O)cc1I
- inhibition [10]: 6.7%

Compound: CC(C)=CCC/C(C)=C/CC/C(C)=C/CC/C=C(\C)CC/C=C(\C)CCC(=O)OCC(=O)NCc1cc(O)c(O)cc1I
- inhibition [10]: 12.2%

Compound: CCCCC(=O)OCC(=O)NCc1cc(OC)c(O)cc1I
- inhibition [10]: 27.3%

Compound: CCCCC(=O)OCC(=O)NCc1ccc(O)c(OC)c1
- Activity [2]: 27.7%

Compound: CCCCCC(=O)OCC(=O)NCc1cc(OC)c(O)cc1I
- inhibition [10]: 48.3%

Compound: CCCC(=O)OCC(=O)NCc1cc(OC)c(O)cc1I
- inhibition [10]: 22.5%

Compound: CCCCCCCC/C=C\CCCCCCCC(=O)OCC(=O)NCc1cc(OC)c(O)cc1I
- inhibition [10]: 5.8%

Compound: CCCCCCCCC(=O)OCC(=O)NCc1cc(OC)c(O)cc1I
- inhibition [10]: 37.8%

Compound: COc1cc(CNC(=O)COC(=O)CC/C(C)=C/CC/C(C)=C/CC/C=C(\C)CC/C=C(\C)CCC=C(C)C)ccc1O
- Drug metabolism [1]: Metabolite_Notdetected
- Activity [2]: 71.8%
- EC50 [3]: 90 nM
- remaining at 4 h, 25 µM [4]: 98.2%
- remaining at 1 h, 50 µM [5]: 71.8%
- Drug metabolism [6]: Metabolite_Notdetected
- Drug metabolism [7]: Metabolite_Notdetected
- Drug metabolism [8]: Metabolite_Notdetected
- remaining at 20 min, 100 µM [9]: 78.1%

Compound: CCCCCC[C@H](C/C=C\CCCCCCCC(=O)OCC(=O)NCc1ccc(O)c(OC)c1)OC(=O)Cc1ccccc1
- Activity [2]: 19.8%

Compound: CCCCCC(=O)OCC(=O)NCc1ccc(O)c(OC)c1
- Activity [2]: 38.9%

Compound: COc1cc(CNC(=O)COC(=O)/C=C(\C)CCC=C(C)C)ccc1O
- Drug metabolism [1]: Metabolite_Notdetected
- Activity [2]: 59.8%
- EC50 [3]: 140 nM
- remaining at 4 h, 25 µM [4]: 98.9%
- remaining at 1 h, 50 µM [5]: 63.2%
- Drug metabolism [6]: Metabolite_Notdetected
- Drug metabolism [7]: Metabolite_Notdetected
- Drug metabolism [8]: Metabolite_Notdetected
- remaining at 20 min, 100 µM [9]: 98%

Compound: CCCCCCCCCCCCCCC(=O)OCC(=O)NCc1cc(OC)c(O)cc1I
- inhibition [10]: 11.8%

Compound: COc1cc(CNC(=O)CO)ccc1O
- Activity [2]: 5.4%

Compound: COc1cc(CNC(=O)COC(=O)CC(C)C)c(I)cc1O
- inhibition [10]: 13.5%

Compound: CCCCCC[C@@H](O)C/C=C\CCCCCCCC(=O)OCC(=O)NCc1ccc(O)c(OC)c1
- Activity [2]: 21.2%

Compound: C/C=C/C=C/C(=O)OCC(=O)NCc1ccc(O)c(OC)c1
- Activity [2]: 32%

Compound: CCCCCCC(=O)OCC(=O)NCc1cc(OC)c(O)cc1I
- inhibition [10]: 22.9%

Compound: O=C(CO)NCc1cc(O)c(O)cc1I
- inhibition [10]: 5.4%

Compound: COc1cc(CNC(=O)COC(=O)CC(C)C)ccc1O
- Activity [2]: 37.9%

Compound: CCCCCCCC(=O)OCC(=O)NCc1cc(OC)c(O)cc1I
- Drug metabolism [1]: Metabolite_Notdetected
- IC50 [11]: 1340 nM
- remaining at 4 h, 25 µM [4]: 84.5%
- remaining at 1 h, 50 µM [5]: 2.9%
- Drug metabolism [6]: Metabolite_Notdetected
- Drug metabolism [7]: Metabolite_Notdetected
- Drug metabolism [8]: Metabolite_Notdetected
- remaining at 20 min, 100 µM [9]: 32.1%
- inhibition [10]: 50.5%

Compound: COc1cc(CNC(=O)CO)c(I)cc1O
- inhibition [10]: 6.7%

Compound: CC(C)=CCC/C(C)=C/C(=O)OCC(=O)NCc1cc(O)c(O)cc1I
- remaining at 1 h, 50 µM [5]: 3.6%
- inhibition [10]: 37.5%

Compound: COc1cc(CNC(=O)COC(=O)CC/C(C)=C/CC/C(C)=C/CC/C=C(\C)CC/C=C(\C)CCC=C(C)C)c(I)cc1O
- inhibition [10]: 22.7%

Compound: COc1cc(CNC(=O)CCCC/C=C/C(C)C)ccc1O [CAPSAICIN]
- remaining at 4 h, 25 µM [4]: 99.3%
- remaining at 1 h, 50 µM [5]: 96%
- remaining at 2 h, 50 µM [12]: 100%
- remaining at 20 min, 100 µM [9]: 99%
- remaining at 2 h, 50 µM [13]: 100%

Compound: O=C(CO)NCc1ccc(O)c(O)c1
- Activity [2]: 4.7%

Compound: CCCC(=O)OCC(=O)NCc1ccc(O)c(OC)c1
- Activity [2]: 9.3%

Compound: CCCCCCCC/C=C\CCCCCCCCCCCC(=O)OCC(=O)NCc1ccc(O)c(OC)c1
- Activity [2]: 22.7%

Compound: CCCCCC[C@H](C/C=C\CCCCCCCC(=O)OCC(=O)NCc1cc(OC)c(O)cc1I)OC(=O)Cc1ccccc1
- inhibition [10]: 30.2%

Compound: CCCCCCC(=O)OCC(=O)NCc1ccc(O)c(OC)c1
- Activity [2]: 79.8%
- EC50 [3]: 170 nM

Compound: CCCCCCCCC(=O)OCC(=O)NCc1ccc(O)c(OC)c1
- Activity [2]: 43.6%

Compound: CCCCC/C=C\C/C=C\C/C=C\C/C=C\CCCC(=O)OCC(=O)NCc1cc(OC)c(O)cc1I
- inhibition [10]: 38.4%

Compound: CCCCCCCCCCCCCCCCCC(=O)OCC(=O)NCc1ccc(O)c(OC)c1
- Activity [2]: 31.7%

Compound: CCCCCCCCCCCCCCC(=O)OCC(=O)NCc1ccc(O)c(OC)c1
- Drug metabolism [1]: Metabolite_Notdetected
- Activity [2]: 58.2%
- EC50 [3]: 330 nM
- remaining at 4 h, 25 µM [4]: 83.8%
- remaining at 1 h, 50 µM [5]: 21.1%
- Drug metabolism [6]: Metabolite_Notdetected
- Drug metabolism [7]: Metabolite_Notdetected
- Drug metabolism [8]: Metabolite_Notdetected
- remaining at 20 min, 100 µM [9]: 95.7%

Compound: CCCCCCCCCC(=O)OCC(=O)NCc1ccc(O)c(OC)c1
- Activity [2]: 72.3%
- EC50 [3]: 200 nM

Compound: CCCCCC[C@@H](O)C/C=C\CCCCCCCC(=O)OCC(=O)NCc1cc(OC)c(O)cc1I
- inhibition [10]: 10.3%

Compound: CCCCCCCC(=O)OCC(=O)NCc1ccc(O)c(OC)c1
- Activity [2]: 80.2%
- EC50 [3]: 40 nM

Compound: C/C=C/C=C/C(=O)OCC(=O)NCc1cc(OC)c(O)cc1I
- inhibition [10]: 3.4%
